# Results: patent US20220359084A1, “Methods of Treatments Based Upon Molecular Characterization of Breast Cancer” (The Board of Trustees of the Leland Stanford Junior …, priority 2019, published 2022)
# Assays:
# [1] = tested on: patient derived organoids derived from patient 19004; test: Patient derived organoid (PDO) viability, AlamarBlue, FIGS. 53A and 53B; type: cell-based; settings: Homo sapiens, 192 h, ER-positive PDOs categorized into IntClust4, text says 19006 patient (FIGS. 53A and 53B), 8 days treatment, 'on the order of', units given within the value
# Protocol: FIGS. 53A and 53B provide viability curves of patient derived organoids derived from patient 19004, generated in accordance with various embodiments of the invention.
# To assess breast cancer PDOs, the organoids were digested into single cells with TrypLE (Gibco). Cells are strained with a 100 μm filter then seeded as 10,000 cells per well with 10 μl […] (BME) (Cultrex) in a black, clear bottom 96-well plate and covered with 100 μl breast organoid media. Cells are grown for 4 days to form small spheroids. Cells were treated with 6 concentrations of different targeted Therapies (including but not limited to capivasertib, ipatasertib, PF4706871, M2698, alpelisib), as well as negative control (DMSO) and positive control (Triton X-100) in duplicate for 8 days, with drug media refreshed on day 5. On day 8, the plates are manually checked under the microscope to ensure the positive control drug(s) had effectively killed organoids, and that organoids present in the negative control wells were healthy. Cell viability is assessed using AlamarBlue (Thermofisher) by adding the dye to the media in final concentration of 1:10, followed by incubation for 4 hours at 37° C., and […] measurement using a microplate reader (Molecular Devices). […] Averages of IC50s from two to three independent experiments were calculated and visualized using R. […]
# [2] = tested on: PDOs derived from the 19006 patient; test: Patient derived organoid (PDO) viability, AlamarBlue, patient 19006; type: cell-based; settings: Homo sapiens, 192 h, ER-positive PDOs categorized into IntClust4, 19006 patient (FIGS. 52A and 52B), 8 days treatment, 'on the order of', units given within the value
# Protocol: FIGS. 52A and 52B provide viability curves of patient derived organoids derived from patient 19006, generated in accordance with various embodiments of the invention.
# To assess breast cancer PDOs, the organoids were digested into single cells with TrypLE (Gibco). Cells are strained with a 100 μm filter then seeded as 10,000 cells per well with 10 μl […] (BME) (Cultrex) in a black, clear bottom 96-well plate and covered with 100 μl breast organoid media. Cells are grown for 4 days to form small spheroids. Cells were treated with 6 concentrations of different targeted Therapies (including but not limited to capivasertib, ipatasertib, PF4706871, M2698, alpelisib), as well as negative control (DMSO) and positive control (Triton X-100) in duplicate for 8 days, with drug media refreshed on day 5. On day 8, the plates are manually checked under the microscope to ensure the positive control drug(s) had effectively killed organoids, and that organoids present in the negative control wells were healthy. Cell viability is assessed using AlamarBlue (Thermofisher) by adding the dye to the media in final concentration of 1:10, followed by incubation for 4 hours at 37° C., and […] measurement using a microplate reader (Molecular Devices). IC50 values are computed using R package drc. Averages of IC50s from two to three independent experiments were calculated and visualized using R.
# Likewise, capivasertib, ipatasertib, and M22698, but not alpelisib and PF4706871, each provide IC50 on the order of 100 nM to 10 μM for PDOs derived from the 19006 patient (FIGS. 53A and 53B).
# [3] = tested on: patients with metastatic ER-positive breast cancer; test: Progression free survival by molecular subgroup in a prospective cohort of 812 patients; type: in vivo, human; settings: for progression free survival after endocrine therapy, high-risk vs lower risk integrative cluster groups: endocrine therapy (fulvestrant or tamoxifen), pooled, groups averaged together, FIG. 47, adj. P=0.0075
# Source text: The ability of chemotherapy, targeted therapies, and endocrine therapies on patients within particular molecular subgroups was examined in a prospective cohort of 812 patients with metastatic ER-positive breast cancer. Provided in FIG. […]
# [4] = general statement, no test described; cited from earlier work
structure (smiles),measurement,setting,value
NC(=O)c1cccc2c(N[C@H](CN3CCC3)c3ccc(Cl)c(C(F)(F)F)c3)ncnc12 [M22698],IC50,[1],0.1 to 10 µM
same,IC50,[2],0.1 to 10 µM
Cc1nc(NC(=O)N2CCC[C@H]2C(N)=O)sc1-c1ccnc(C(C)(C)C(F)(F)F)c1 [alpelisib],IC50,[2],0.1 to 10 µM
CO[C@H]1C[C@@H]2CC[C@@H](C)[C@@](O)(O2)C(=O)C(=O)N2CCCC[C@H]2C(=O)O[C@H]([C@H](C)C[C@@H]2CC[C@@H](OCCO)[C@H](OC)C2)CC(=O)[C@H](C)/C=C(\C)[C@@H](O)[C@@H](OC)C(=O)[C@H](C)C[C@H](C)/C=C/C=C/C=C/1C [everolimus],"progression free survival probability, with vs without mTOR antagonist treatment","[3]; IntClust1 patients, FIG. 45, adj. P value=0.023",profoundly greater survival probability
C[C@]12CC[C@@H]3c4ccc(O)cc4C[C@@H](CCCCCCCCC[S+]([O-])CCCC(F)(F)C(F)(F)F)[C@H]3[C@@H]1CC[C@@H]2O (stereo partly drawn) [fulvestrant],oral availability,[4],low
same,"progression free survival probability, aromatase inhibitor vs fulvestrant treatment","[3]; IntClust1, IntClust2 and IntClust6 patients (averaged together), FIG. 48, adj. P value=0.004",patients receiving an aromatase inhibitor had greater survival probability than patients receiving fulvestrant
same,"progression free survival probability, fulvestrant vs aromatase inhibitor treatment","[3]; IntClust9 patients, FIG. 49, adj. P value=0.361","slightly, yet insignificantly, greater survival probability"
same,"progression free survival after endocrine therapy, high-risk vs lower risk integrative cluster groups",[3],lower risk groups have higher probability of progression free survival than high-risk groups
CC(C)NC[C@@H](C(=O)N1CCN(c2ncnc3c2[C@H](C)C[C@H]3O)CC1)c1ccc(Cl)cc1 [ipatasertib],IC50,[1],0.1 to 10 µM
same,IC50,[2],0.1 to 10 µM
CN(C)C(=O)c1cc2cnc(Nc3ccc(N4CCNCC4)cn3)nc2n1C1CCCC1 [ribociclib],"progression free survival probability, with vs without CDK4/6 antagonist treatment","[3]; IntClust2 patients, pooled CDK4/6 inhibitor group, FIG. 46, adj. P value=0.016",profoundly greater survival probability
CC/C(=C(\c1ccccc1)c1ccc(OCCN(C)C)cc1)c1ccccc1 [tamoxifen],"progression free survival after endocrine therapy, high-risk vs lower risk integrative cluster groups",[3],lower risk groups have higher probability of progression free survival than high-risk groups
